In data set [1] the test system is Candida albicans WX-CA009. The experiment in a line: Minimum inhibitory concentration (MIC) test against fungi. The format is cell-based. The following applies: Candida albicans, WXCA009, 24 h, ≥50% growth inhibition by eye, three independent experiments, read-out: MIC. How it is done: (§1) To test the minimum inhibitory concentration (MIC) and minimum effective concentration (MEC) of the drug against fungi.
(§2) Experimental strains: Candida parapsilosis ATCC 22019; Candida albicans ATCC MYA-2876; Candida albicans WX-CA009; Candida glabrata ATCC15126; Candida tropicalis ATCC 750;
(§3) Test medium: RPMI1640 (containing 0.165 M MOPS, pH7.0)
(§4) On the day of the experiment, the compound in the bottle was dissolved in 100% DMSO to a stock solution concentration of 6.24 mg/mL. Then, the mixture was 10-fold diluted with DMSO to 0.624 mg/mL for use.
(§5) A 2-fold gradient dilution of the compound solution (0.624 mg/mL) was performed using DMSO on a 96-microwell plate (V-bottom) to obtain 100× working solutions (wells 1 to 11). 624, 312, 156, 78, 39, 20, 10, 5, 2.5, 1.25, 0.625 μg/mL. 100% DMSO was used as a positive control (well 12). This was the compound stock plate.
(§6) Candida parapsilosis ATCC 22019 and Candida albicans ATCC MYA-2876; Candida albicans WX-CA009; Candida glabrata ATCC15126; Candida tropicalis ATCC 750 frozen at −80° C. were streaked on SDA plates and incubated aerobically in a 35±2° C. incubator for 24 hours.
(§7) On the day of the experiment, for strains Candida parapsilosis ATCC 22019, Candida albicans ATCC MYA-2876; Candida albicans WX-CA009; Candida glabrata ATCC15126; Candida tropicalis ATCC 750 and Cryptococcus neoformans H99 ATCC 208821, the plates were taken out and the clones on the plates were picked, suspended in normal saline, and then the turbidity of the fungal suspension was adjusted to OD600=0.2 using a turbidimeter. The fungal suspension contained about 3.0×10^6 CFU/mL. Then the turbidity-adjusted fungal suspension was diluted with a test medium to a concentration of about 3.0×10^3 CFU/mL. This was the inoculum.
(§8) 2 μL of 100× working solution from the compound stock plate (prepared in 3.1) was transferred to a round-bottomed 96-well plate (containing 98 μL of test medium), and then 100 μL of fungus inoculum (prepared in 3.2) was added to each well to obtain a MIC test plate. Therefore, the final test concentrations of the compounds were 6.24, 3.12, 1.56, 0.78, 0.39, 0.20, 0.10, 0.05, 0.025, 0.0125, 0.006 μg/mL. 1% DMSO was used as a growth control.
(§9) For strains Candida parapsilosis ATCC 22019; Candida albicans ATCC MYA-2876; Candida albicans WX-CA009; Candida glabrata ATCC15126; Candida tropicalis ATCC 750, all test plates were incubated aerobically in a 35±2° C. incubator for 24 hours.
(§10) After incubation, according to the criteria in Table 1 below, the test plate was observed by eye or microscope to determine the MIC (g/mL) and MEC (g/mL) of the test compound against yeast and mold.

The subject of data set [2] is Candida parapsilosis ATCC 22019. Described as above. The following applies: Lodderomyces parapsilosis, ATCC22019, 24 h, ≥50% growth inhibition by eye, three independent experiments (1st, 2nd, 3rd time), read-out: MIC. The format is cell-based. How it is done:
as §1, §2, §3, §4, §5, §6, §7, §8, §9, §10

The subject of data set [3] is Candida glabrata ATCC15126. Described as above. The class given is cell-based. The following applies: ≥50% growth inhibition by eye, three independent experiments. How it is done: as §1, §2, §3, §4, §5, §6, §7, §8, §9, §10
In data set [4] the test system is Cryptococcus neoformans H99 ATCC 208821. The data set is described as above. The class given is cell-based. The following applies: Cryptococcus neoformans, ATCC208821, 72 h, ≥50% growth inhibition by eye, three independent experiments, read-out: MIC. How it is done:
as §1
Cryptococcus neoformans H99 ATCC 208821;
as §3, §4, §5
Cryptococcus neoformans H99 ATCC 208821 frozen at −80° C. was streaked on SDA plates and incubated aerobically in a 35±2° C. incubator for 48 hours.
as §7, §8
For Cryptococcus neoformans H99 ATCC 208821, all test plates were incubated aerobically in a 35±2° C. incubator for 72 hours.
as §10

The nature of data set [5]: Mouse pharmacokinetic evaluation, intraperitoneal injection after oral ABT. The format is in vivo. The following applies: ip, female CD-1 mice, 26 mpk, ABT 50 mg/kg orally 2 hours before, plasma. The source says: Experimental Purpose: Using female CD-1 mice as test animals, LC/MS/MS was used to measure the plasma drug concentration at different times after intraperitoneal injection of the test compound. To study the pharmacokinetic behavior of the test compound in mice and evaluate its pharmacokinetic characteristics. Drug preparation: An appropriate amount of sample was weighed and then prepared into a clear or suspended solution. Administration scheme: Two healthy female CD-1 mice were taken, purchased from Beijing Vital River Laboratory Animal Technology Co., Ltd., and given a normal diet. The drug was administered through intraperitoneal injection. Operational steps: 2 hours before administration, 1-aminobenzotriazole (ABT) was orally administered (50 mg/kg, 5 mg/mL in normal saline), and after animal administration, about 30 μL of blood was collected at 0.083, 0.25, 0.5, 1, 2, 4, 8, and 24 hours, and placed in commercially available anticoagulant tubes pre-added with EDTA-K2. The tubes were centrifuged for 10 minutes to separate the plasma, and the plasma was stored at −60° C. The content of the target compound in the plasma sample was determined by LC/MS/MS method, and the experimental results are shown in Table 3.

≈ marks a conversion by molar mass, not a printed value. Where two headings read alike, the source gives them in different places.

`Nc1ccc(C#CCc2ccc(COc3ccccn3)cc2)cn1` [WX004]: the MIC in data set [1] was 0.025 µg/mL (≈ 0.0793 µM); in data set [2] it was 0.05 µg/mL (≈ 0.159 µM); in data set [3] (Nakaseomyces glabratus, ATCC15126, 24 h, read-out: MIC), 0.39 µg/mL (≈ 1.24 µM); in data set [3] (24 hours), 0.78 µg/mL (≈ 2.47 µM); in data set [4], 1.56 µg/mL (≈ 4.95 µM). Moreover, the AUC in data set [5] (read-out: Concentration Integral AUC) came to 305 µM·h. Moreover, the Cmax in data set [5] (read-out: Peak Concentration Cmax) amounted to 19 µM. The time to peak (Tmax) in data set [5] (read-out: Peak Time Tmax) was found to be 1 h.

As usually defined, the MIC is the smallest concentration in the dilution series that meets the test's criterion for growth inhibition. As a reminder, the Tmax is the time at which the peak concentration occurs.
